Measurements taken from PubChem BioAssay AID1259407 (Chemical Carcinogenesis Research Information System (CCRIS), 2018).
Calls of active or inactive are those of the source. The rule behind the calls is not given here.

Test system: CCRIS mutagenicity, Ames/micronucleus/aberration tests
Assay: CCRIS mutagenicity studies

## CN(CCCC(=O)c1cccnc1)N=O
Test System: AMES SALMONELLA TYPHIMURIUM, Strain/Indicator: TA100, Metabolic Activation: NONE, Method: PREINCUBATION
  mutagenic call: inactive; negative
Test System: AMES SALMONELLA TYPHIMURIUM, Strain/Indicator: TA100, Metabolic Activation: RABBIT, LIVER, S-9, Method: PREINCUBATION
  mutagenic call: active; positive
Test System: AMES SALMONELLA TYPHIMURIUM, Strain/Indicator: TA100, Metabolic Activation: RABBIT, LUNG, CLARA CELLS, Method: PREINCUBATION
  mutagenic call: inactive; negative
Test System: AMES SALMONELLA TYPHIMURIUM, Strain/Indicator: TA100, Metabolic Activation: RABBIT, LUNG, MACROPHAGES, Method: PREINCUBATION
  mutagenic call: inactive; negative
Test System: AMES SALMONELLA TYPHIMURIUM, Strain/Indicator: TA100, Metabolic Activation: RABBIT, LUNG, TYPE II CELLS, Method: PREINCUBATION
  mutagenic call: inactive; negative
Test System: AMES SALMONELLA TYPHIMURIUM, Strain/Indicator: TA100, Metabolic Activation: RAT LIVER S-9, AROCLOR 1254, Method: PREINCUBATION
  mutagenic call: inactive; negative
Test System: AMES SALMONELLA TYPHIMURIUM, Strain/Indicator: TA100, Metabolic Activation: RAT, LIVER, S-9, AROCLOR 1254, Method: STANDARD PLATE
  mutagenic call: active; positive
Test System: AMES SALMONELLA TYPHIMURIUM, Strain/Indicator: TA1530, Metabolic Activation: RABBIT, LIVER, S-9, Method: PREINCUBATION
  mutagenic call: active; positive
Test System: AMES SALMONELLA TYPHIMURIUM, Strain/Indicator: TA1530, Metabolic Activation: RABBIT, LUNG, CLARA CELLS, Method: PREINCUBATION
  mutagenic call: inactive; negative
Test System: AMES SALMONELLA TYPHIMURIUM, Strain/Indicator: TA1530, Metabolic Activation: RABBIT, LUNG, MACROPHAGES, Method: PREINCUBATION
  mutagenic call: inactive; negative
Test System: AMES SALMONELLA TYPHIMURIUM, Strain/Indicator: TA1530, Metabolic Activation: RABBIT, LUNG, TYPE II CELLS, Method: PREINCUBATION
  mutagenic call: inactive; negative
Test System: AMES SALMONELLA TYPHIMURIUM, Strain/Indicator: TA1535, Metabolic Activation: HAMSTER, LIVER, MICROSOMES, 3-METHYLCHOLANTHRENE, Method: PREINCUBATION
  mutagenic call: active; positive
Test System: AMES SALMONELLA TYPHIMURIUM, Strain/Indicator: TA1535, Metabolic Activation: HAMSTER, LIVER, MICROSOMES, AROCLOR 1254, Method: PREINCUBATION
  mutagenic call: active; positive
Test System: AMES SALMONELLA TYPHIMURIUM, Strain/Indicator: TA1535, Metabolic Activation: HAMSTER, LIVER, MICROSOMES, DEXAMETHASONE, Method: PREINCUBATION
  mutagenic call: active; positive
Test System: AMES SALMONELLA TYPHIMURIUM, Strain/Indicator: TA1535, Metabolic Activation: HAMSTER, LIVER, MICROSOMES, ETHANOL, Method: PREINCUBATION
  mutagenic call: active; positive
Test System: AMES SALMONELLA TYPHIMURIUM, Strain/Indicator: TA1535, Metabolic Activation: HAMSTER, LIVER, MICROSOMES, ISOSAFROL, Method: PREINCUBATION
  mutagenic call: active; positive
Test System: AMES SALMONELLA TYPHIMURIUM, Strain/Indicator: TA1535, Metabolic Activation: HAMSTER, LIVER, MICROSOMES, PHENOBARBITAL, Method: PREINCUBATION
  mutagenic call: active; positive
Test System: AMES SALMONELLA TYPHIMURIUM, Strain/Indicator: TA1535, Metabolic Activation: HAMSTER, LIVER, S-9, 3-METHYLCHOLANTHRENE, Method: PREINCUBATION
  mutagenic call: active; positive
Test System: AMES SALMONELLA TYPHIMURIUM, Strain/Indicator: TA1535, Metabolic Activation: HAMSTER, LIVER, S-9, AROCLOR 1254, Method: PREINCUBATION
  mutagenic call: active; positive
Test System: AMES SALMONELLA TYPHIMURIUM, Strain/Indicator: TA1535, Metabolic Activation: HAMSTER, LIVER, S-9, DEXAMETHASONE, Method: PREINCUBATION
  mutagenic call: active; positive
Test System: AMES SALMONELLA TYPHIMURIUM, Strain/Indicator: TA1535, Metabolic Activation: HAMSTER, LIVER, S-9, ETHANOL, Method: PREINCUBATION
  mutagenic call: active; positive
Test System: AMES SALMONELLA TYPHIMURIUM, Strain/Indicator: TA1535, Metabolic Activation: HAMSTER, LIVER, S-9, ISOSAFROL, Method: PREINCUBATION
  mutagenic call: active; positive
Test System: AMES SALMONELLA TYPHIMURIUM, Strain/Indicator: TA1535, Metabolic Activation: HAMSTER, LIVER, S-9, PHENOBARBITAL, Method: PREINCUBATION
  mutagenic call: active; positive
Test System: AMES SALMONELLA TYPHIMURIUM, Strain/Indicator: TA1535, Metabolic Activation: NONE, Method: STANDARD PLATE
  mutagenic call: inactive; negative
Test System: AMES SALMONELLA TYPHIMURIUM, Strain/Indicator: TA1535, Metabolic Activation: RAT, LIVER, HEPATOCYTES, AROCLOR 1254, Method: STANDARD PLATE
  mutagenic call: active; positive
Test System: AMES SALMONELLA TYPHIMURIUM, Strain/Indicator: TA1535, Metabolic Activation: RAT, LIVER, HEPATOCYTES, Method: STANDARD PLATE
  mutagenic call: active; positive
Test System: AMES SALMONELLA TYPHIMURIUM, Strain/Indicator: TA1535, Metabolic Activation: RAT, LIVER, S-9, AROCLOR 1254, Method: STANDARD PLATE
  mutagenic call: active; positive
Test System: AMES SALMONELLA TYPHIMURIUM, Strain/Indicator: TA1535, Metabolic Activation: RAT, LIVER, S-9, Method: STANDARD PLATE
  mutagenic call: inactive; negative
Test System: AMES SALMONELLA TYPHIMURIUM, Strain/Indicator: TA1535, Metabolic Activation: RAT, TRACHEAL EPITHELIAL CELLS, AROCLOR 1254, Method: STANDARD PLATE
  mutagenic call: inactive; negative
Test System: AMES SALMONELLA TYPHIMURIUM, Strain/Indicator: TA1535, Metabolic Activation: RAT, TRACHEAL EPITHELIAL CELLS, Method: STANDARD PLATE
  mutagenic call: inactive; negative
Test System: AMES SALMONELLA TYPHIMURIUM, Strain/Indicator: TA7004, Metabolic Activation: HAMSTER LIVER S-9, AROCLOR 1254, Method: PREINCUBATION
  mutagenic call: active; positive
Test System: AMES SALMONELLA TYPHIMURIUM, Strain/Indicator: TA7004, Metabolic Activation: NONE, Method: PREINCUBATION
  mutagenic call: inactive; negative
Test System: AMES SALMONELLA TYPHIMURIUM, Strain/Indicator: TA7004, Metabolic Activation: RAT LIVER S-9, AROCLOR 1254, Method: PREINCUBATION
  mutagenic call: active; positive
Test System: AMES SALMONELLA TYPHIMURIUM, Strain/Indicator: YG7108-2A6-OR, Metabolic Activation: NONE, Method: PREINCUBATION
  mutagenic call: active; positive
Test System: AMES SALMONELLA TYPHIMURIUM, Strain/Indicator: YG7108-2A6, Metabolic Activation: NONE, Method: PREINCUBATION
  mutagenic call: active; positive
Test System: AMES SALMONELLA TYPHIMURIUM, Strain/Indicator: YG7108-PCW, Metabolic Activation: NONE, Method: PREINCUBATION
  mutagenic call: inactive; negative
Test System: AMES SALMONELLA TYPHIMURIUM, Strain/Indicator: YG7108, Metabolic Activation: RAT LIVER S-9, PHENOBARBITAL AND 5,6-BENZOFLAVONE, Method: PREINCUBATION
  mutagenic call: active; positive
Test System: CHINESE HAMSTER V-79, Strain/Indicator: V-79 (HPRT)/6-THIOGUANINE, Metabolic Activation: RAT, HEPATOCYTES
  mutagenic call: active; positive
Test System: CHINESE HAMSTER V-79, Strain/Indicator: V-79 (HPRT)/6-THIOGUANINE, Metabolic Activation: RAT, HEPATOMA, H4IIE CELLS
  mutagenic call: inactive; negative
Test System: CHINESE HAMSTER V-79, Strain/Indicator: V-79 (HPRT)/6-THIOGUANINE, Metabolic Activation: RAT, LIVER, S-9, AROCLOR 1254
  mutagenic call: active; positive
Test System: E. COLI, Strain/Indicator: NR3835, Metabolic Activation: HOST-MEDIATED, Method: IN VIVO-IN VITRO
  mutagenic call: active; positive
Test System: UDS RABBIT LUNG CLARA CELLS, Strain/Indicator: THY INCORP, Metabolic Activation: NONE, Method: LIQUID SCINTILLATION COUNTING
  mutagenic call: active; positive
Test System: UDS RABBIT LUNG MACROPHAGES, Strain/Indicator: THY INCORP, Metabolic Activation: NONE, Method: LIQUID SCINTILLATION COUNTING
  mutagenic call: inactive; negative
Test System: UDS RABBIT LUNG TYPE II CELLS, Strain/Indicator: THY INCORP, Metabolic Activation: NONE, Method: LIQUID SCINTILLATION COUNTING
  mutagenic call: active; positive
Test System: UDS RODENT HEPATOCYTES, Strain/Indicator: THY INCORP (NON-S-PHASE), Method: AUTORADIOGRAPHY
  mutagenic call: active; positive

## Nc1ccc(/C=C/c2cccc(N)c2)cc1
Test System: AMES SALMONELLA TYPHIMURIUM, Strain/Indicator: TA98(1,8-DNP6), Metabolic Activation: NONE, Method: STANDARD PLATE
  mutagenic call: inactive; negative
Test System: AMES SALMONELLA TYPHIMURIUM, Strain/Indicator: TA98(1,8-DNP6), Metabolic Activation: S-9, Method: STANDARD PLATE
  mutagenic call: active; positive
Test System: AMES SALMONELLA TYPHIMURIUM, Strain/Indicator: TA98, Metabolic Activation: NONE, Method: STANDARD PLATE
  mutagenic call: active; positive
Test System: AMES SALMONELLA TYPHIMURIUM, Strain/Indicator: TA98, Metabolic Activation: S-9, Method: STANDARD PLATE
  mutagenic call: active; positive
Test System: AMES SALMONELLA TYPHIMURIUM, Strain/Indicator: TA100, Metabolic Activation: NONE, Method: STANDARD PLATE
  mutagenic call: inactive; negative
Test System: AMES SALMONELLA TYPHIMURIUM, Strain/Indicator: TA100, Metabolic Activation: S-9, Method: STANDARD PLATE
  mutagenic call: active; positive
